Reference: patent US8222219B2, “Glucopyranoside compound” (Mitsubishi Tanabe Pharma Corporation, priority 2003, dated 2012)

Biological target: T1, human SGLT2 (Homo sapiens, UniProt P31639)
T1 construct: expressed in transfected cells; host or cells: CHOK1 (CHO-K1) cells, kept under Geneticin selection
T1 sequence (P31639 1-672): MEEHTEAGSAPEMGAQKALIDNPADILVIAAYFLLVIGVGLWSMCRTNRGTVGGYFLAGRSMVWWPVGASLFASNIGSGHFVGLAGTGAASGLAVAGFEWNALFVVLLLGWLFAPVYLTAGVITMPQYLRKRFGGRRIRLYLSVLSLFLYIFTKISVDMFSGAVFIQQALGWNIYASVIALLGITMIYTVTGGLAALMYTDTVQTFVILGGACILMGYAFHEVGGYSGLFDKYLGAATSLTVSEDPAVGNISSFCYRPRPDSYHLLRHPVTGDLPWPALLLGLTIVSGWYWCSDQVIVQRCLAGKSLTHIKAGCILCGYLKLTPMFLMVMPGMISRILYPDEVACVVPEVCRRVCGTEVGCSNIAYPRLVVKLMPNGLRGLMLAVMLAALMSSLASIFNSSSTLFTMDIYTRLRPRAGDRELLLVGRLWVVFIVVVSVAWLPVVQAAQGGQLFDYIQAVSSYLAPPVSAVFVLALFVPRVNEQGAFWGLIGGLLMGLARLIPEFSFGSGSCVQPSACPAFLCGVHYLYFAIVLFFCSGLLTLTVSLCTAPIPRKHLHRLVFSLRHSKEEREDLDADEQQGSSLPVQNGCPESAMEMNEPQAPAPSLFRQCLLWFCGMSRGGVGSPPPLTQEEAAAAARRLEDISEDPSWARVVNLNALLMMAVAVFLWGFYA
Experiment: Assay for SGLT2 inhibition (14C-AMG uptake in CHOK1 cells expressing human SGLT2)
Format: cell-based
Conditions: CHOK1 cells expressing human SGLT2; 14C-AMG uptake 0.5 mM, 2 hours at 37° C.; read-out: IC50
Method: 1. Assay for SGLT2 Inhibition
Compounds described in the above examples were used for the SGLT2 inhibition assay.
CHOK1 cells expressing human SGLT2 were seeded in 24-well plates at a density of 400,000 cells/well in F-12 nutrient mixture (Ham's F-12) containing 10% fetal bovine serum, 400 μg/ml Geneticin, 50 units/ml sodium penicillin G (Gibco-BRL) and 50 μg/ml streptomycin sulfate. […] Test compounds were dissolved in DMSO. The final concentration of DMSO was 0.5%. The transport reaction was initiated by addition of 50 μl [^14C]-methyl-α-D-glucopyranoside (^14C-AMG) solution (final concentration, 0.5 mM). After incubation for 2 hours at 37° C., the uptake was stopped by aspiration of the incubation mixture, the cells were washed three times with ice-cold PBS. Then, cells were solubilized with 0.3 N NaOH and aliquots were taken for determination of radioactivity by a liquid scintillation counter. Nonspecific AMG uptake was defined as that which occurred in the presence of 100 μM of phlorizin, a specific inhibitor of sodium-dependent glucose cotransporter. Specific uptake was normalized for the protein concentrations measured by the method of Bradford.

IC50	Compound
7.9 nM	OC[C@H]1O[C@@H](c2ccc(Cl)c(Cc3ccc(-c4ccccc4F)s3)c2)[C@H](O)[C@@H](O)[C@@H]1O [Example 69]
2.6 nM	Cc1ccc([C@@H]2O[C@H](CO)[C@@H](O)[C@H](O)[C@H]2O)cc1Cc1cc2ccc(OCCF)cc2s1 [Example 235]
1.6 nM	COc1ccc2cc(Cc3cc([C@@H]4O[C@H](CO)[C@@H](O)[C@H](O)[C@H]4O)ccc3C)sc2c1 [Example 238]
2.6 nM	CCOc1cccc(-c2ccc(Cc3cc([C@@H]4O[C@H](CO)[C@@H](O)[C@H](O)[C@H]4O)ccc3C)s2)c1 [Example 212]
3.6 nM	Cc1ccc([C@@H]2O[C@H](CO)[C@@H](O)[C@H](O)[C@H]2O)cc1Cc1ccc(-c2ccnc(F)c2)s1 [Example 217]
9.8 nM	OC[C@H]1O[C@@H](c2ccc(Cl)c(Cc3ccc(-c4ccc(C(F)F)cc4)s3)c2)[C@H](O)[C@@H](O)[C@@H]1O [Example 179, 1-(β-D-glucopyranosyl)-4-chloro-3-(5-(4-difluoromethylphenyl)-2-thienylmethyl)benzene]
5.4 nM	Cc1ccc([C@@H]2O[C@H](CO)[C@@H](O)[C@H](O)[C@H]2O)cc1Cc1ccc(-c2ccc(C#N)nc2)s1 [Example 186, 1-(β-D-glucopyranosyl)-3-(5-(2-cyano-5-pyridyl)-2-thienylmethyl)-4-methylbenzene]
3.6 nM	CCOc1ccc2cc(Cc3cc([C@@H]4O[C@H](CO)[C@@H](O)[C@H](O)[C@H]4O)ccc3C)sc2c1 [Example 228]
6.4 nM	Cc1cc(-c2ccc(Cc3cc([C@@H]4O[C@H](CO)[C@@H](O)[C@H](O)[C@H]4O)ccc3C)s2)on1 [Example 246]
1.3 nM	Cc1ccc([C@@H]2O[C@H](CO)[C@@H](O)[C@H](O)[C@H]2O)cc1Cc1ccc(-c2cccc(F)c2)s1 [Example 83]
3.2 nM	COc1c(Cc2ccc(-c3ncccn3)s2)cc([C@@H]2O[C@H](CO)[C@@H](O)[C@H](O)[C@H]2O)c2ccccc12 [Example 266]
1.6 nM	Cc1cc(-c2ccc(Cc3cc([C@@H]4O[C@H](CO)[C@@H](O)[C@H](O)[C@H]4O)ccc3Cl)s2)ccn1 [Example 253]
6.7 nM	Cc1ccc([C@@H]2O[C@H](CO)[C@@H](O)[C@H](O)[C@H]2O)cc1Cc1ccc(-c2ccc(C#N)c(F)c2)s1 [Example 219]
4 nM	CCOc1ccc(-c2ccc(Cc3cc([C@@H]4O[C@H](CO)[C@@H](O)[C@H](O)[C@H]4O)ccc3C)s2)cc1 [Example 232]
4 nM	Cc1ccc([C@@H]2O[C@H](CO)[C@@H](O)[C@H](O)[C@H]2O)cc1Cc1ccc(-c2ccc3c(c2)OCO3)s1 [Example 145]
4.2 nM	COc1c(Cc2ccc(Cl)s2)cc([C@@H]2O[C@H](CO)[C@@H](O)[C@H](O)[C@H]2O)c2ccccc12 [Example 250, 1-(β-D-Glucopyranosyl)-3-(5-chloro-2-thienylmethyl)-4-methoxynaphthalene]
1 nM	Cc1ccc([C@@H]2O[C@H](CO)[C@@H](O)[C@H](O)[C@H]2O)cc1Cc1ccc(-c2ncco2)s1 [Example 241]
1.2 nM	Cc1csc(-c2ccc(Cc3cc([C@@H]4O[C@H](CO)[C@@H](O)[C@H](O)[C@H]4O)ccc3Cl)s2)n1 [Example 244]
1 nM	Cc1ccc([C@@H]2O[C@H](CO)[C@@H](O)[C@H](O)[C@H]2O)cc1Cc1ccc(-c2cscn2)s1 [Example 210]
1.4 nM	Cc1nc(-c2ccc(Cc3cc([C@@H]4O[C@H](CO)[C@@H](O)[C@H](O)[C@H]4O)ccc3Cl)s2)cs1 [Example 252]
3.4 nM	Cc1cccc(-c2ccc(Cc3cc([C@@H]4O[C@H](CO)[C@@H](O)[C@H](O)[C@H]4O)ccc3Cl)s2)c1 [Example 87]
2.4 nM	COc1cccc(-c2ccc(Cc3cc([C@@H]4O[C@H](CO)[C@@H](O)[C@H](O)[C@H]4O)ccc3C)s2)n1 [Example 208]

IC50	Compound
8 nM	CCOc1cccc(-c2ccc(Cc3cc([C@@H]4O[C@H](CO)[C@@H](O)[C@H](O)[C@H]4O)ccc3Cl)s2)n1 [Example 173, 1-(β-D-glucopyranosyl)-4-chloro-3-(5-(6-ethoxy-2-pyridyl)-2-thienylmethyl)benzene]
1.6 nM	NC(=O)c1ccc(-c2ccc(Cc3cc([C@@H]4O[C@H](CO)[C@@H](O)[C@H](O)[C@H]4O)ccc3Cl)s2)cn1 [Example 188, 1-(β-D-glucopyranosyl)-3-(5-(2-carbamoyl-5-pyridyl)-2-thienylmethyl)-4-chlorobenzene]
2.6 nM	OC[C@H]1O[C@@H](c2ccc(Cl)c(Cc3ccc(-c4cccc(Cl)c4)s3)c2)[C@H](O)[C@@H](O)[C@@H]1O [Example 88]
7.7 nM	Cc1ccc([C@@H]2O[C@H](CO)[C@@H](O)[C@H](O)[C@H]2O)cc1Cc1ccc(-c2ccc(C(F)F)cc2)s1 [Example 176, 1-(β-D-glucopyranosyl)-3-(5-(4-difluoromethylphenyl)-2-thienylmethyl)-4-methylbenzene]
2 nM	COc1cccc(-c2ccc(Cc3cc([C@@H]4O[C@H](CO)[C@@H](O)[C@H](O)[C@H]4O)ccc3C)s2)c1 [Example 90]
1.5 nM	Cc1ccc([C@@H]2O[C@H](CO)[C@@H](O)[C@H](O)[C@H]2O)cc1Cc1ccc(-c2cccc(C#N)n2)s1 [Example 225]
5.1 nM	OC[C@H]1O[C@@H](c2ccc(F)c(Cc3ccc(-c4cccc(F)n4)s3)c2)[C@H](O)[C@@H](O)[C@@H]1O [Example 248]
7.4 nM	O=C(O)c1ccc(-c2ccc(Cc3cc([C@@H]4O[C@H](CO)[C@@H](O)[C@H](O)[C@H]4O)ccc3Cl)s2)cc1 [Example 192, 1-(β-D-glucopyranosyl)-3-(5-(4-carboxyphenyl)-2-thienylmethyl)-4-chlorobenzene]
1.5 nM	OCc1ccc(-c2ccc(Cc3cc([C@@H]4O[C@H](CO)[C@@H](O)[C@H](O)[C@H]4O)ccc3Cl)s2)cc1 [Example 264, 1-(β-D-glucopyranosyl)-4-chloro-3-(5-(4-hydroxymethylphenyl)-2-thienylmethyl)benzene]
3.4 nM	COc1c(Cc2ccc(-c3ccccc3)s2)cc([C@@H]2O[C@H](CO)[C@@H](O)[C@H](O)[C@H]2O)c2ccccc12 [Example 265, 1-(β-D-glucopyranosyl)-3-(5-phenyl-2-thienylmethyl)-4-methoxynaphthalene]
1.2 nM	Cc1ccc([C@@H]2O[C@H](CO)[C@@H](O)[C@H](O)[C@H]2O)cc1Cc1ccc(-c2cccs2)s1 [Example 211]
6.8 nM	OC[C@H]1O[C@@H](c2ccc(F)c(Cc3ccc(-c4cccc(F)c4)s3)c2)[C@H](O)[C@@H](O)[C@@H]1O [Example 80]
8.2 nM	Cc1ccc([C@@H]2O[C@H](CO)[C@@H](O)[C@H](O)[C@H]2O)cc1Cc1ccc(-c2cc(F)cc(F)c2)s1 [Example 201]
4 nM	Cc1ccc([C@@H]2O[C@H](CO)[C@@H](O)[C@H](O)[C@H]2O)cc1Cc1cc2cc(OCCF)ccc2s1 [Example 230]
1.8 nM	Cc1ccc([C@@H]2O[C@H](CO)[C@@H](O)[C@H](O)[C@H]2O)cc1Cc1ccc(-c2cccc(OC(F)F)c2)s1 [Example 222]
5.9 nM	Cc1ccc([C@@H]2O[C@H](CO)[C@@H](O)[C@H](O)[C@H]2O)cc1Cc1cc2ccc(OC(F)F)cc2s1 [Example 224]
4.3 nM	O=Cc1ccc(-c2ccc(Cc3cc([C@@H]4O[C@H](CO)[C@@H](O)[C@H](O)[C@H]4O)ccc3Cl)s2)cc1 [Example 249, 1-(β-D-Glucopyranosyl)-4-chloro-3-(5-(4-formylphenyl)-2-thienylmethyl)benzene]
6.5 nM	OC[C@H]1O[C@@H](c2cc(Cc3ccc(-c4cccc(F)n4)s3)c(F)c3ccccc23)[C@H](O)[C@@H](O)[C@@H]1O [Example 255]
2.8 nM	Cc1cccc(-c2ccc(Cc3cc([C@@H]4O[C@H](CO)[C@@H](O)[C@H](O)[C@H]4O)ccc3C)s2)c1 [Example 86]
1.5 nM	COc1c(Cc2ccc(-c3cccc(C#N)c3)s2)cc([C@@H]2O[C@H](CO)[C@@H](O)[C@H](O)[C@H]2O)c2ccccc12 [Example 267]
1.2 nM	OC[C@H]1O[C@@H](c2ccc(Cl)c(Cc3ccc(-c4ncco4)s3)c2)[C@H](O)[C@@H](O)[C@@H]1O [Example 240]
3.1 nM	OC[C@H]1O[C@@H](c2ccc(Cl)c(Cc3ccc(-c4ncc(F)s4)s3)c2)[C@H](O)[C@@H](O)[C@@H]1O [Example 256]
